Laboratory results published in the supplement of paper PMC7455731.

Assay: collision cross section (DTIM-MS, N2); higher = larger ion
Description: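 Collision cross section (CCS) of drug and natural-product chemical standards (validation set 2, measured in this paper). Three independent measurements were made across 2 months; the value taken is their mean (avg_ccs), for the ion adduct given.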

Row | Compound | collision cross section (ion adduct: [M-H]-) [Å²] | collision cross section (ion adduct: [M+H]+) [Å²]
1 | c1ccc2c(c1)Nc1ccccc1S2 [Phenothiazine] | 140.54 | –
2 | CCCCC[C@H](O)CC(=O)CCc1ccc(O)c(OC)c1 [6-Gingerol] | 170.04 | –
3 | O=C(C=CC=Cc1ccccc1)CCc1ccccc1 [Alnustone] | 178.13 | 168.73
4 | COC(=O)C1=CO[C@@H](O[C@@H]2O[C@H](CO)[C@@H](O)[C@H](O)[C@H]2O)[C@H]2[C@@H]1[C@H](O)C[C@]2(C)OC(C)=O [8-O-Acetylshanzhiside methyl ester] | 208.19 | –
5 | COc1cc(NS(C)(=O)=O)ccc1Nc1c2ccccc2nc2ccccc12 [Amsacrine] | 199.97 | 195.94
6 | COc1cc(/C=C/C(=O)O)cc(OC)c1OC [3,4,5-Trimethoxycinnamic acid] | 167.91 | –
7 | COC(=O)Nc1nc2ccccc2[nH]1 [Carbendazim] | – | 138.81
8 | C[C@H]1[C@H](OC(=O)CCC(=O)O)O[C@@H]2O[C@@]3(C)CC[C@H]4[C@H](C)CC[C@@H]1[C@@]24OO3 [Artesunate] | 185.75 | –
9 | Nc1nc(N)nc(NC2CC2)n1 [Cyromazine] | – | 135.92
10 | COc1cc2c3c(c1OC)-c1ccccc1C[C@H]3N(C)CC2 [Nuciferine] | – | 172.41
11 | CC(=O)/C=C/c1ccccc1 [trans-4-phenylbut-3-en-2-one] | – | 131.24
12 | C[C@H]1CC[C@]2(OC1)O[C@H]1C[C@H]3[C@@H]4CC=C5C[C@@H](O[C@@H]6O[C@H](CO)[C@@H](O[C@@H]7O[C@@H](C)[C@H](O)[C@@H](O)[C@H]7O)[C@H](O)[C@H]6O[C@@H]6O[C@@H](C)[C@H](O)[C@@H](O)[C@H]6O)CC[C@]5(C)[C@H]4CC[C@]3(C)[C@H]1[C@@H]2C [Dioscin] | 324.15 | 330.49
13 | CCCCCC=CC(=O)CCc1ccc(O)c(OC)c1 [6-Shogaol] | 167.21 | –
14 | COc1ccc(C[C@H]2NC[C@H](O)[C@H]2OC(C)=O)cc1 [Anisomycin] | – | 164.18
15 | CC1=CC23C(=O)C(C=C(CO)C(O)C2(O)C1O)C1C(CC3C)C1(C)C (stereo not given) [Ingenol] | 184.41 | –
16 | CCCCCCCC(O)CC(=O)CCc1ccc(O)c(OC)c1 (stereo not given) [8-Gingerol] | 178.08 | –
17 | COc1cc(O)cc2c1C(=O)C[C@@H](c1ccccc1)O2 [Alpinetin] | – | 160.76

Results, then the molecule that gave them:

Row | collision cross section (ion adduct: [M-H]-) [Å²] | collision cross section (ion adduct: [M+H]+) [Å²] | Compound
18 | – | 250.54 | COc1cc([C@@H]2c3cc4c(cc3[C@@H](O[C@@H]3O[C@@H]5CO[C@@H](C)O[C@H]5[C@H](O)[C@H]3O)C3COC(=O)C32)OCO4)cc(OC)c1O (stereo not given in full) [Etoposide]
19 | – | 193.33 | COc1cc(C=CC(=O)CC(=O)C=Cc2ccc(O)cc2)ccc1O [Demethoxycurcumin]
20 | – | 209.65 | C[C@H]1CC[C@]2(OC1)O[C@H]1C[C@H]3[C@@H]4CC=C5C[C@@H](O)CC[C@]5(C)[C@H]4CC[C@]3(C)[C@H]1[C@@H]2C [Diosgenin]
21 | 193.52 | – | O=C1C(O)=C([C@H]2CC[C@H](c3ccc(Cl)cc3)CC2)C(=O)c2ccccc21 [Atovaquone]
22 | 155.14 | – | NC(=O)c1ncn([C@@H]2O[C@H](CO)[C@@H](O)[C@H]2O)c1O [Mizoribine]
23 | 310.46 | – | CC1(C)CC[C@]2(C(=O)O[C@@H]3O[C@H](CO)[C@@H](O)[C@H](O)[C@H]3O)CC[C@]3(C)C(=CC[C@@H]4[C@@]5(C)CC[C@H](O[C@@H]6O[C@H](C(=O)O)[C@@H](O)[C@H](O)[C@H]6O[C@@H]6O[C@H](CO)[C@@H](O)[C@H](O)[C@H]6O)C(C)(C)[C@@H]5CC[C@]43C)[C@@H]2C1 [Ginsenoside Ro]
24 | 159.74 | 157.96 | O=C1C[C@@H](c2ccccc2)Oc2cc(O)cc(O)c21 [Pinocembrin]
25 | – | 155.86 | Nc1ccn([C@@H]2O[C@H](CO)[C@@H](O)C2(F)F)c(=O)n1 [Gemcitabine]
26 | 259.6 | 248.03 | COc1cc2c(cc1OC)C(Cc1ccc(Oc3cc(CC4c5cc(OC)c(OC)cc5CCN4C)ccc3O)cc1)N(C)CC2 (stereo not given) [Dauricine]
27 | 284.94 | 284.23 | CO[C@H]1C=CO[C@@]2(C)Oc3c(C)c(O)c4c(O)c(c(/C=N/N5CCN(C)CC5)c(O)c4c3C2=O)NC(=O)/C(C)=C\C=C/[C@H](C)[C@H](O)[C@@H](C)[C@@H](O)[C@@H](C)[C@H](OC(C)=O)[C@@H]1C [Rifampicin]
28 | 162.87 | 162.69 | Cc1noc(NS(=O)(=O)c2ccc(N)cc2)c1C [Sulfisoxazole]
29 | 194.56 | 191.26 | C=CC(C)(C)c1cc(/C=C/C(=O)c2ccc(O)cc2)c(OC)cc1O [Licochalcone A]
30 | 232.33 | 238.39 | COc1ccc(CC2c3cc(Oc4cc(CC5c6cc(O)c(OC)cc6CCN5C)ccc4O)c(OC)cc3CCN2C)cc1 (stereo not given) [Isoliensinine]
31 | 180.82 | 185.63 | CC(C)=CC(=O)OC1Cc2cc3ccc(=O)oc3cc2OC1(C)C (stereo not given) [Decursin]
32 | – | 152.03 | Cn1c(=O)c2c(ncn2CC(=O)O)n(C)c1=O [Theophylline-7-acetic acid]
33 | 280.87 | – | CC(/C=C/C=C(\C)C(=O)O[C@@H]1O[C@H](CO)[C@@H](O)[C@H](O)[C@H]1O)=C\C=C\C=C(C)\C=C\C=C(/C)C(=O)O[C@@H]1O[C@H](CO[C@@H]2O[C@H](CO)[C@@H](O)[C@H](O)[C@H]2O)[C@@H](O)[C@@H](O)[C@H]1O [Crocin II]
34 | 203.66 | 202.65 | NC[C@H]1O[C@H](O[C@H]2[C@H](O)[C@@H](O[C@H]3O[C@H](CO)[C@@H](O)[C@H](N)[C@H]3O)[C@H](N)C[C@@H]2N)[C@H](N)C[C@@H]1O [Tobramycin]
35 | 221.44 | 230.49 | COc1ccc(-c2cc(=O)c3c(O)cc(O)cc3o2)cc1-c1c(O)cc(O)c2c(=O)cc(-c3ccc(O)cc3)oc12 [Bilobetin]
36 | 148.59 | – | COc1cc(C(=O)O)cc(OC)c1O [Syringic acid]
37 | – | 214.42 | COc1cc(C2Oc3ccc(C4Oc5cc(O)cc(O)c5C(=O)C4O)cc3OC2CO)ccc1O (stereo not given) [Isosilybin]
38 | – | 125.25 | NC(=O)c1cccnc1 [Nicotinamide]
39 | 171.14 | 170.36 | COc1c(C=CC(=O)c2ccc(O)cc2)ccc(O)c1O [Licochalcone B]
40 | 178.93 | – | C=C[C@](C)(O)CC[C@@H]1[C@@]2(C)CCCC(C)(C)[C@@H]2CC[C@@]1(C)O [Sclareol]
41 | 219.9 | 217.15 | CC(=O)OC5CC(=O)O[C@@](C)(C)[C@@H]6CC(=O)[C@]3(C)[C@H](CC[C@@]2(C)[C@@H](OC(=O)[C@H]1O[C@]123)c4ccoc4)[C@@]56C (stereo not given in full) [Nomilin]
